Data set [1] relates to Plasmodium berghei. The experiment in a line: Antimalarial activity against Plasmodium berghei ANKA infected in mouse at 30 mg/kg, po. It is filed as functional.
Data set [2] deals with Plasmodium falciparum. The experiment in a line: Antimalarial activity against Plasmodium falciparum W2. It is filed as functional, organism-based.
Data set [3] is described as follows: Selectivity index, ratio of IC50 for HEK293 cells to IC50 for Plasmodium falciparum NF54. It is filed as toxicity. As to conditions: human, read-out: Ratio IC50.
The subject of data set [4] is Plasmodium falciparum. The experiment in a line: Antimalarial activity against Plasmodium falciparum K1. It is filed as functional, organism-based.
In data set [5] the test system is Plasmodium falciparum. Put plainly: Antimalarial activity against Plasmodium falciparum NF54. In kind it is functional, organism-based.
For data set [6], the system named is Plasmodium falciparum. Put plainly: Antimalarial activity against chloroquine-sensitive Plasmodium falciparum NF54. In kind it is functional, organism-based.
Data set [7] relates to Plasmodium falciparum. Put plainly: Potency index, ratio of artesunate IC50 to test compound IC50 for Plasmodium falciparum NF54. In kind it is functional.
The subject of data set [8] is Plasmodium berghei. The experiment in a line: Antimalarial activity against Plasmodium berghei infected in mouse assessed reduction in parasitemia measured after 4 days. Set-up: scale not given: the % may be the effect or the level left. As to conditions: time 4 day. In kind it is functional.
Data set [9] relates to Plasmodium berghei. The experiment in a line: Antimalarial activity against Plasmodium berghei infected in mouse assessed cured animal rate measured after 25 days. As to conditions: time 25 day. It is filed as functional.
Data set [10] concerns Plasmodium berghei. Put plainly: Antimalarial activity against Plasmodium berghei infected in mouse assessed increase in survival time. It is filed as functional.
Data set [11] relates to Plasmodium vinckei. The experiment in a line: Antimalarial activity against Plasmodium vinckei infected in mouse assessed as reduction in parasitaemia at 50 mg/kg, po or […], ip measured on day 5. It is filed as functional. Set-up: scale not given: the % may be the effect or the level left.
Data set [12] concerns Plasmodium vinckei. Put plainly: Antimalarial activity against Plasmodium vinckei infected in mouse assessed as reduction in parasitaemia at 25 mg/kg, po or 7.5 mg/kg, ip measured on day 5. It is filed as functional. More on the design: scale not given: the % may be the effect or the level left.
Data set [13] deals with Plasmodium falciparum. Put plainly: Antimalarial activity against chloroquine resistant Plasmodium falciparum FcB1/Colombia. In kind it is functional, organism-based.
A short description of data set [14]: Selectivity index, ratio of IC50 for human AB943 to IC50 for chloroquine resistant Plasmodium falciparum FcB1/Colombia.
Data set [15] deals with Plasmodium yoelii. The experiment in a line: Antimalarial activity against Plasmodium yoelii BY265 infected in mouse assessed reduction in parasitemia at 4.4 to […], iv administered for 4 consecutive days. It is filed as functional. More on the design: scale not given: the % may be the effect or the level left.
Data set [16] deals with Plasmodium falciparum. Put plainly: Antimalarial activity against ART-resistant Plasmodium falciparum harboring R539T mutant assessed as increase in survival at 700 nM. In kind it is functional.
Data set [17] relates to Plasmodium berghei. The experiment in a line: Antimalarial activity against Plasmodium berghei infected in mouse. In kind it is functional.
Data set [18] has as its system Plasmodium falciparum. Put plainly: Potency index, ratio of chloroquine IC50 to test compound IC50 for Plasmodium falciparum INDO. In kind it is functional.
The subject of data set [19] is Plasmodium falciparum. Put plainly: Antimalarial activity against Plasmodium falciparum INDO. In kind it is functional, organism-based.
The nature of data set [20]: Cytotoxicity against HEK293 cells. In kind it is toxicity, cell-based. As to conditions: human.
Data set [21] deals with Plasmodium yoelii. The experiment in a line: Antimalarial activity against Plasmodium yoelii infected in sc dosed mouse. In kind it is functional.
The test system of data set [22] is Plasmodium berghei. The experiment in a line: Potency index, ratio of artesunate ED90 to test compound ED90 for Plasmodium berghei. In kind it is functional.
For data set [23], the system named is Plasmodium falciparum. Put plainly: Antimalarial activity against Plasmodium falciparum D6. In kind it is functional, organism-based.
Data set [24] relates to Plasmodium berghei. Put plainly: Antimalarial activity against Plasmodium berghei infected in sc dosed mouse. It is filed as functional. As to conditions: Plasmodium berghei.
Data set [25] has as its system Plasmodium yoelii. Put plainly: Potency index, ratio of artesunate ED90 to test compound ED90 for Plasmodium yoelii. It is filed as functional.

The values below come from ChEMBL document CHEMBL5244272 (Eur J Med Chem, 2021).

Converted amounts (≈) assume the structure as drawn.

Take `O=C(CC1CCC2(CC1)OOC1(OO2)C2CC3CC(C2)CC1C3)NC1CC1` (stereo not given): in the data set with Plasmodium berghei [1], the Activity is 100%.
Consider `CC(C)CCC[C@H](C)C1CC[C@H]2[C@@H]3CC=C4C[C@@H](OC(=O)CCN5CCN([C@H]6O[C@@H]7O[C@]8(C)CC[C@H]9[C@H](C)CC[C@@H]([C@H]6C)[C@@]79OO8)CC5)CC[C@]4(C)[C@H]3CC[C@]12C` (stereo not given in full), for which the IC50 was 24 nM in the data set on Plasmodium falciparum [2], 29 nM with Plasmodium falciparum [4] and 31 nM in the data set on Plasmodium falciparum [5]. For the same molecule, the selectivity ratio in data set [3] was found to be 3900.
As for `C[C@H]1[C@H](OC(=O)c2cccc3c2OCO3)O[C@@H]2O[C@]3(C)CC[C@H]4[C@H](C)CC[C@@H]1[C@@]24OO3`, the midpoint of inhibition in the data set on Plasmodium falciparum [6], the IC50, lay at 8.08 nM. The “Ratio IC50” value with Plasmodium falciparum [7] came out at 2.3.
As for `CCN(CC)Cc1cc(C2CCC3(CC2)OOC2(OO3)C3CC4CC(C3)CC2C4)ccc1O` (stereo not given), the figures for the Activity with Plasmodium berghei [8] and in the data set on Plasmodium berghei [9] were >99.7% and 66%, respectively. Further, in the data set with Plasmodium berghei [10], the Time was determined as 27 days.
As to `C[C@H]1[C@@H](OCCN(CCCNc2ccnc3cc(Cl)ccc23)CCO[C@H]2O[C@@H]3O[C@]4(C)CC[C@H]5[C@H](C)CC[C@@H]([C@H]2C)[C@@]35OO4)O[C@@H]2O[C@]3(C)CC[C@H]4[C@H](C)CC[C@@H]1[C@@]24OO3`, the Activity in the data set on Plasmodium vinckei [11] and with Plasmodium vinckei [12] was <1% in each case.
For `CC(C)CCC[C@H](C)C1CC[C@H]2[C@@H]3CC=C4C[C@@H](OC(=O)CCCCCN5CCN([C@H]6O[C@@H]7O[C@]8(C)CC[C@H]9[C@H](C)CC[C@@H]([C@H]6C)[C@@]79OO8)CC5)CC[C@]4(C)[C@H]3CC[C@]12C` (stereo not given in full), the IC50 is 70 nM with Plasmodium falciparum [2], 52 nM in the data set with Plasmodium falciparum [4] and 78 nM with Plasmodium falciparum [5]. In [3], the selectivity ratio came out at 1820.
With `CCOP(=O)(CCCN(O)C(=O)CCC(=O)N(CCCCNC(=O)CCO[C@H]1O[C@@H]2O[C@]3(C)CC[C@H]4[C@H](C)CC[C@@H]([C@H]1C)[C@@]24OO3)CCCCNC(=O)CC[C@@H]1O[C@@H]2O[C@@]3(C)CC[C@@H]4[C@@H](C)CC[C@@H]([C@@H]1C)[C@]24OO3)OCC`, the IC50 in the data set with Plasmodium falciparum [13] stood at 0.65 nM. Besides, the Ratio IC50 in data set [14] stood at 34.
For the molecule `C[C@H]1[C@@H](OCCN2CC[N+](CCNc3ccnc4cc(Cl)ccc34)(CCO[C@H]3O[C@@H]4O[C@]5(C)CC[C@H]6[C@H](C)CC[C@@H]([C@H]3C)[C@@]46OO5)CC2)O[C@@H]2O[C@]3(C)CC[C@H]4[C@H](C)CC[C@@H]1[C@@]24OO3`, the Activity in the data set with Plasmodium vinckei [11] and in the data set on Plasmodium vinckei [12] was <1% each time.
In the case of `CCCCCCCCCCCCCC[N+](C)(C)CCOC(=O)c1ccc(COC2O[C@@H]3O[C@]4(C)CC[C@H]5[C@H](C)CC[C@@H]([C@H]2C)[C@@]35OO4)cc1.[Br-]` (stereo not given in full), the Activity with Plasmodium yoelii [15] was >50%.
Molecule `CCOP(=O)(CCCN(O)C(=O)CCC(=O)N(CCCCNC(=O)CC[C@@H]1O[C@@H]2O[C@@]3(C)CC[C@@H]4[C@@H](C)CC[C@@H]([C@@H]1C)[C@]24OO3)CCCNC(=O)CCO[C@H]1O[C@@H]2O[C@]3(C)CC[C@H]4[C@H](C)CC[C@@H]([C@H]1C)[C@@]24OO3)OCC` registered a half-inhibitory concentration (IC50) with Plasmodium falciparum [13] of 0.36 nM. Also, the Ratio IC50 in [14] was 94.
For the molecule `CC(C)(N)CNC(=O)C[C@H]1CC[C@]2(CC1)OO[C@]1(O2)C2CC3CC(C2)CC1C3` [OZ277], the Activity in the data set on Plasmodium falciparum [16] came to 0.01%; in the data set with Plasmodium berghei [9], 60%; in the data set on Plasmodium berghei [17], 67%.
In the case of `C=C(c1ccc(-c2cccc3ccccc23)cc1)C1COC2(CCCC2)OO1` (stereo not given), the “Ratio IC50” value in the data set on Plasmodium falciparum [18] is >9. Besides, in the data set with Plasmodium falciparum [19], inhibition was half-maximal at 59 nM (IC50). For the same molecule, in data set [20], the CC50 amounted to 3300 nM.
As to `C[C@H]1[C@H](Nc2ccc(F)cc2)O[C@@H]2O[C@]3(C)CC[C@H]4[C@H](C)CC[C@@H]1[C@@]24OO3`, the IC50 in the data set with Plasmodium falciparum [2] is 0.64 ng/mL; in the data set with Plasmodium falciparum [23], 0.64 ng/mL (≈ 1.7 nM). The ED90 stood at 0.6 mg/kg in the data set on Plasmodium yoelii [21] and 0.35 mg/kg in the data set with Plasmodium berghei [24]. Moreover, the Ratio with Plasmodium berghei [22] and in the data set on Plasmodium yoelii [25] was 13 each time.
